# Several values for one entry are separate records, joined by “and”; a condition that tells them apart may be missing. Identical values can stand only once.
# What was measured:
# G1P3 = experiment: Quantitative RT-PCR, unsorted mononuclear cells, G1P3; type: cell-based, human
# Experimental: (§1) To evaluate the effect of MGBG on gene expression, blood samples were obtained from patients (N=18, 10 HIV-infected and 8 Healthy Controls). Mononuclear cells were isolated via Percoll gradient centrifugation. The cells were split into two tubes, one treated with 10 μM of MGBG and the other non-treated. The cells were then cultured overnight in RPMI media plus 10% fetal bovine serum at 37 C under non-adherent conditions, collected, lysed using Trizol solution, and total RNA prepared according to manufacturer's instructions (Invitrogen, Carlsbad, Calif.).
# (§2) Approximately 200 ng of total RNA prepared from each sample was converted to cDNA using the First Strand cDNA Synthesis Kit for RT-PCR [AMV] kit (Roche Applied Diagnostics, Indianapolis, Ind.) according to manufacturer's instructions. Around 5 ng of cDNA sample was then used for PCR performed on a LightCycler (Roche Applied Diagnostics, Indianapolis, Ind.) using the LightCycler FastStart DNA Master SYBR Green I kit. PCR conditions are as follows: 1 cycle of denaturation at 95° C. for 10 minutes, followed by 45 cycles of 95° C. for 10 seconds, 68° C. for 10 seconds, and 72° C. for 16 seconds.
# (§3) The sequences of gene-specific primers evaluated are listed below. All samples were also amplified with the human β-actin LightCycler-Primer set (Roche Diagnostics).
# HeLa cell = experiment: Migration assay, HeLa cell invasion into a Matrigel matrix; type: cell-based; conditions: 10 μM MGBG
# Experimental: (§4) Additionally, cells being targeted by MGBG were investigated. […] To elucidate the effects of MGBG and OPN on cell motility, migration assays were conducted. MGBG at 10 μM inhibited macrophage Osteopontin production from >200 ng/mL to nondetectable levels while simultaneously inhibiting HeLa cell invasion into a Matrigel matrix.
# FCGR1a = experiment: Microarray analysis of mononuclear cells, FCGR1a; type: cell-based, human; conditions: for FCGR1a signal +, Average: 10 μM MGBG
# Experimental: (§5) Blood samples were obtained from HIV infected patients (N=9) with positive viral load and reduced CD4 counts, and non-HIV infected, healthy controls (N=6). Blood was collected into heparin anticoagulant tubes and mononuclear cells were isolated by Percoll gradient centrifugation. The cells from each sample were split into 2: one-half receives MGBG at concentration of 10 μM and the other half received no treatment. All samples were then cultured overnight in RPMI media with 10% fetal bovine serum at 37° C. under non-adherent conditions. The next day cells were collected by centrifugation, washed one time with PBS, and lysed by resuspension in TRIZOL, and total RNA was prepared according to manufacturer's instructions (Invitrogen, Carlsbad, Calif.). […] The RNA was then amplified for microarray analysis using a 2 cycle amplification protocol according to the manufacturer's instructions (Affymetrix, Santa Clara, Calif.). The amplified RNAs were then hybridized to Human Genome U133 plus 2.0 microarrays (Affymetrix) and expression data was obtained using an Affymetrix scanner and GCOS protocols. Microarray data was analyzed with GeneSpring Microarray Suite. Results were normalized using a set of 100 probe sets determined by the manufacturer to have relatively invariant expression across most cell types.
# IL6 = experiment: Quantitative RT-PCR, unsorted mononuclear cells, IL6; type: cell-based, human
# Experimental: as §1, §2, §3
# OPN = OPN antibody staining of brains and lymph nodes of SIV-infected animals; type: in vivo, Rhesus macaques
# Experimental: These monkeys were then treated with MGBG as described.
# IL10 = experiment: Microarray analysis of mononuclear cells, IL10 probe; type: cell-based, human; conditions: presence of MGBG, all samples
# Experimental: as §5
# IL1RN = experiment: Quantitative RT-PCR, unsorted mononuclear cells, IL1RN; type: cell-based, human
# Experimental: as §1, §2, §3
# CD14+ cells = experiment: Yield of CD14+ cells in culture, flow cytometry; type: cell-based, human; conditions: 10 μM MGBG; for % Reduction 14, Average: 5th day
# MX2 = experiment: Quantitative RT-PCR, unsorted mononuclear cells, MX2; type: cell-based, human
# Experimental: as §1, §2, §3
# SGNE1 = experiment: Microarray analysis of mononuclear cells, SGNE1; type: cell-based, human; conditions: for SGNE1 signal +, Average: 10 μM MGBG
# Experimental: as §5
# SGNE3 = experiment: Quantitative RT-PCR, unsorted mononuclear cells, SGNE3; type: cell-based, human
# Experimental: as §1, §2, §3
# Osteopontin = experiment: Macrophage Osteopontin production in migration assays; type: cell-based; conditions: 10 μM MGBG; from >200 ng/mL without drug
# Experimental: as §4
# [1] = 10 μM MGBG overnight, individual samples
# [2] = average of control samples (C6-, M6-177)
# [3] = 10 μM, individual donor samples
# [4] = presence of 10 μM MGBG overnight, individual donor samples
# [5] = 10 μM MGBG overnight, untreated vs treated, negative = fold reduction, individual samples
# [6] = 10 μM MGBG, all unsorted samples
smiles,measurement,setting,value
"CC(/C=N/NC(=N)N)=N\NC(=N)N [MGBG, 1,1′ [methylethanediylidene]dinitrilodiguanidine]",Fold change G1P3 by QRT-PCR,G1P3; [1],1.92 fold and −1.25 fold (2×) and 1.31 fold and −2.03 fold and −1.14 fold (2×) and −2.04 fold and 2.13 fold and 1.22 fold (2×) and −2.99 fold and −6.63 fold and −1.95 fold and −2.85 fold and 1.47 fold and −1.66 fold and 1.68 fold
same,G1P3 AVERAGE,"G1P3; 10 μM MGBG, all samples",0.96 fold
same,G1P3 MAX,"G1P3; 10 μM MGBG, all samples",2.13 fold
same,G1P3 MIN,"G1P3; 10 μM MGBG, all samples",−6.63 fold
same,HeLa cell invasion into a Matrigel matrix,HeLa cell,inhibiting
same,"FCGR1a signal +, Average",FCGR1a; average of HIV samples,439
same,"FCGR1a signal +, Average",FCGR1a; [2],608
same,"FCGR1A fold change, ON/MGBG ratio (down-regulation)",FCGR1a; [3],9.2 fold and 1.3 fold and 0.3 fold (3×) and 0.9 fold (2×) and 0.1 fold and 4.3 fold and 2.7 fold and 2.5 fold and 2.2 fold and 0.4 fold and 12.3 fold and 1.0 fold
same,samples with FCGR1A down-regulated more than 2 fold,FCGR1a; HIV samples,6 of 9
same,FCGR1a signal +,FCGR1a; [4],415 and 461 and 59 and 800 and 1561 and 136 and 51 and 612 and 53 and 1362 and 1435 and 264 and 33 and 14 and 347
same,Fold change IL6 by QRT-PCR,IL6; [1],−5.31 fold and 3.71 fold and 1.04 fold and 1.01 fold and −2.93 fold and −4.17 fold and 2.20 fold and 2.83 fold and −2.71 fold and −4.06 fold and 1.74 fold (2×) and 1.30 fold and 1.46 fold and −6.15 fold and −1.09 fold and −5.46 fold and 14.72 fold
same,IL6 AVERAGE,"IL6; 10 μM MGBG, all samples",1.91 fold
same,IL6 MAX,"IL6; 10 μM MGBG, all samples",14.72 fold
same,IL6 MIN,"IL6; 10 μM MGBG, all samples",−6.15 fold
same,"OPN in brains, antibody staining","OPN; FIG. 10, treated SIV-infected animals",complete removal of OPN
same,OPN staining in lymph nodes,"OPN; FIG. 11, treated animals B146 and CB18",markedly decreased levels of OPN
same,"average change in IL10 signal, upregulated",IL10,5.6 fold
same,Fold change IL1RN by QRT-PCR,IL1RN; [5],−10.41 fold and −3.73 fold and 1.12 fold and −1.73 fold and −1.36 fold and −14.22 fold and −1.87 fold and −1.78 fold and 8.63 fold and −2.27 fold and 1.59 fold and −8.17 fold and −19.56 fold and −1.77 fold and −4.92 fold and −2.31 fold and −8.28 fold and −17.75 fold
same,"Fold change IL1RN, AVERAGE",IL1RN; [6],−4.9 fold
same,"Fold change IL1RN, MAX",IL1RN; [6],8.6 fold
same,"Fold change IL1RN, MIN",IL1RN; [6],−19.6 fold
same,IL1RN % >2 fold Changed,"IL1RN; share of samples, 10 μM MGBG",55%
same,samples with IL1RN down-regulated,IL1RN; unsorted samples,15 out of 18
same,% Reduction 14,"CD14+ cells; 5th day of culture, individual donor samples (HIV or healthy)",26% (2×) and 21% and 53% and 76% and 31% and <0% and 58%
same,"% Reduction 14, Average",CD14+ cells; average of HIV samples,46.8%
same,"% Reduction 14, Average",CD14+ cells; average of healthy samples,28.5%
same,Fold change MX2 by QRT-PCR,MX2; [1],2.03 fold and −1.09 fold and 1.16 fold (2×) and −1.01 fold and 4.35 fold and 1.56 fold and −2.81 fold and 3.07 fold and −1.33 fold and −1.77 fold and −3.27 fold and 1.36 fold and 1.13 fold and −2.11 fold and −2.85 fold and 1.23 fold and 6.06 fold
same,MX2 AVERAGE,"MX2; 10 μM MGBG, all samples",1.55 fold
same,MX2 MAX,"MX2; 10 μM MGBG, all samples",6.06 fold
same,MX2 MIN,"MX2; 10 μM MGBG, all samples",−3.27 fold
same,"SGNE1 signal +, Average",SGNE1; average of HIV samples,23
same,"SGNE1 signal +, Average",SGNE1; [2],13
same,"SGNE1 fold change, ON/MGBG ratio (down-regulation)",SGNE1; [3],3.3 fold and 7.4 fold and 1.9 fold and 14.4 fold and 53.3 fold and 4.7 fold and 9.3 fold and 58.8 fold and 2.4 fold and 3.0 fold and 45.5 fold and 159.8 fold and 10.1 fold and 63 fold and 0.8 fold
same,samples with 2 fold or greater reductions in SGNE1 signal,SGNE1; of the 15 samples evaluated,13
same,SGNE1 signal +,SGNE1; [4],17 and 7 and 10 and 13 (3×) and 12 and 2 (2×) and 3 and 45 and 14 and 8 and 79 and 44
same,Fold change SGNE3 by QRT-PCR,SGNE3; [5],1.58 fold and −3.25 fold and −1.30 fold and −2.39 fold and −2.43 fold and −1.48 fold and 1.61 fold and −3.61 fold and −1.66 fold and −1.13 fold and 1.79 fold and −7.11 fold and −2.50 fold and −4.41 fold
same,"Fold change SGNE3, AVERAGE",SGNE3; [6],−1.9 fold
same,"Fold change SGNE3, MAX",SGNE3; [6],1.8 fold
same,"Fold change SGNE3, MIN",SGNE3; [6],−7.1 fold
same,SGNE3 regulation by MGBG,SGNE3; level of inhibition in most samples is low,mostly down-regulated
same,SGNE3 % >2 fold Changed,"SGNE3; share of samples, 10 μM MGBG",50%
same,macrophage Osteopontin production,Osteopontin,nondetectable

# Reference: patent publication US9867794B2, “Regulation of osteopontin” (Pathologica LLC, priority 2007, dated 2018)
